Reference: the supplement of paper PMC11208160

Assay: recombinant barcode read abundance after kanamycin selection (control-corrected) (log10(CPM+1)); higher = more efficient recombination; sequences stand for … in AGTGCAGAGAAAATCGGCCAGTTTTCTCTGCCTGCAGTCCGCATGCCGT…ATTTATGCAGCGGACTGCCTTTCTCCCAAAGTGATAAACCGGACAGTATCATGGACCGGTTTTCCCGGTAATCCGTATTTGCAAGGTTGGTTTCACT; site = the 11-nt target
Method in brief: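 Two replicates per condition were plated: chloramphenicol/ampicillin LB agar for the control, and chloramphenicol/ampicillin/kanamycin with 0.1 mM IPTG for selection. The pooled E. coli screen behind them paired targets with IS621 bridge RNA target-binding loops. Recombination efficiency is expressed from averaged, control-corrected barcode counts per million at recombinant junctions, as log10(CPM+1).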

Sequence | recombinant barcode read abundance (log10)
TGTATTCCTTGGGTTCTAACCTGTTGCCTAG [TGTATTCCTAG_LTGcore_CT_RTGcore_CT] (site TGTATTCCTAG) (LTG core: CT, RTG core: CT) | 0.129
TGTATTCCTTGGGTTCTAACCTGTTGCCTTA [TGTATTCCTAG_LTGcore_CT_RTGcore_TA] (site TGTATTCCTAG) (LTG core: CT, RTG core: TA) | 0.0748
TGTATTCGATGGGTTCTAACCTGTTGCCTAG [TGTATTCCTAG_LTGcore_GA_RTGcore_CT] (site TGTATTCCTAG) (LTG core: GA, RTG core: CT) | 0.0114
TGTATTCGTTGGGTTCTAACCTGTTGCCTAG [TGTATTCCTAG_LTGcore_GT_RTGcore_CT] (site TGTATTCCTAG) (LTG core: GT, RTG core: CT) | 0.0893
TTATAAAACTGGGTTCTAACCTGTTGCCTGT [TTATAAACTAG_LTGcore_AC_RTGcore_AC] (site TTATAAACTAG) (LTG core: AC, RTG core: AC) | 0.0452
TTATAAAAGTGGGTTCTAACCTGTTGCCTCT [TTATAAACTAG_LTGcore_AG_RTGcore_AG] (site TTATAAACTAG) (LTG core: AG, RTG core: AG) | 0.0267
TTATAAACGTGGGTTCTAACCTGTTGCCTCG [TTATAAACTAG_LTGcore_CG_RTGcore_CG] (site TTATAAACTAG) (LTG core: CG, RTG core: CG) | 0.193
TTATAAACTTGGGTTCTAACCTGTTGCCTCA [TTATAAACTAG_LTGcore_CT_RTGcore_TG] (site TTATAAACTAG) (LTG core: CT, RTG core: TG) | 0.402
TTATAAACTTGGGTTCTAACCTGTTGCCTCT [TTATAAACTAG_LTGcore_CT_RTGcore_AG] (site TTATAAACTAG) (LTG core: CT, RTG core: AG) | 0.0489
TTATAAACTTGGGTTCTAACCTGTTGCCTGT [TTATAAACTAG_LTGcore_CT_RTGcore_AC] (site TTATAAACTAG) (LTG core: CT, RTG core: AC) | 0.0449
TTATAAACTTGGGTTCTAACCTGTTGCCTTA [TTATAAACTAG_LTGcore_CT_RTGcore_TA] (site TTATAAACTAG) (LTG core: CT, RTG core: TA) | 0.076
TTATAAAGCTGGGTTCTAACCTGTTGCCTGC [TTATAAACTAG_LTGcore_GC_RTGcore_GC] (site TTATAAACTAG) (LTG core: GC, RTG core: GC) | 0
TTATAAATCTGGGTTCTAACCTGTTGCCTAG [TTATAAACTAG_LTGcore_TC_RTGcore_CT] (site TTATAAACTAG) (LTG core: TC, RTG core: CT) | 0.235
TTATAAATTTGGGTTCTAACCTGTTGCCTAA [TTATAAACTAG_LTGcore_TT_RTGcore_TT] (site TTATAAACTAG) (LTG core: TT, RTG core: TT) | 0.0515
